This note sets out measurements from patent US9040713B2, “Methods of managing blood sugar levels and compositions related thereto” (EMORY UNIVERSITY, priority 2010, dated 2015).

Assay [1] has as its system p85α−/− MEF cells. Briefly: [3H] 2-deoxyglucose transport in p85α knockout MEF cells. The class given is cell-based, mouse. Conditions: insulin 100 nM 15 min or compound 5 μM 30 min. As for the experimental part:
Insulin signaling in the cell lysates were tested by immunoblotting. (B) DDN stimulates glucose uptake. […] [3H]2-deoxyglucose was then added, and the cells were further incubated for 10 min. [3H]2-deoxyglucose uptake by adipocytes was measured by scintillation counting (*: P<0.05 **: P<0.01 vs control, Student's t-test, n=3). (C) DDN synergizes insulin's signaling. […] Cell lysates were then prepared for Western blot using specific antibodies as indicated. […] 3H-2-deoxyglucose was then added, and the cells were further incubated for 10 min. 3H-2-deoxyglucose uptake by adipocytes was measured by scintillation counting (*: P<0.05; **: P<0.01, Student's t-test, n=3). (E) IR is necessary for DDN to induce ERK phosphorylation. […] Cell lysates were analyzed by Western blot. […] The uptake of 3H-2-deoxyglucose was monitored by liquid scintillation counting (*: P<0.05; **: P<0.01 vs control, Student's t-test, n=3).
(A) 4524-E7 activates IR phosphorylation and its downstream signaling in 3T3-L1 adipocytes. […] The amount of [3H]2-deoxyglucose taken by adipocytes was measured. […] Results were normalized to DMSO-treated cells and expressed as mean±S.E.M. (*: P<0.05; **:P<0.01, Student's t-test, n=3). […] Cells lysates were collected and analyzed by Western blot. […] 2-deoxyglucose was monitored by liquid scintillation counter. Results were expressed as mean±S.E.M. (*: P<0.05; **:P<0.01, Student's t-test, n=3). […]

Assay [2] concerns IGF-1R. Briefly: IGF-1R phosphorylation in cells (immunoblotting). The class given is cell-based. The method, then: (A) DDN and CSN activate IR and its downstream signaling in CHO-IR cells. […] The cell lysates were analyzed by immunoblotting with anti-phospho-IR antibodies, or immunoprecipitated by PY20 and analyzed using anti-IR and anti-IRS-1, respectively. (B) DDN and CSN induce IR phosphorylation in a dose-dependent manner. CHO-IR cells were treated with the small compounds at different concentrations for 15 min, and the IR phosphorylation was monitored by immunoprecipitation and immunoblotting. (C) DDN, CSN induce IR phosphorylation in a time-dependent manner. […] (D) DDN and CSN induce IR phosphorylation and its downstream signaling in a dose-dependent manner. […] (E) DDN and CSN cannot induce IGF-1R or EGFR phosphorylation. CHO-IGF-1R or HEK293 cells were treated with EGF (100 nM), IGF-1 (100 nM), DDN (10 μM) or CSN (10 μM) for 15 min. The cell lysates were analyzed by immunoblotting with anti-pIGF-1R and anti-pEGFR.
(A) Chemical structure of 4524-E7. (B) Effect of 4524-E7 and other 1,4-naphthoquinone derivatives on IR phosphorylation in CHO-IR cells. CHO-IR cells were cultured in 96-well plates and treated with 5 μM compounds for 15 min at 37 C. Cells were lysed, and IR phosphorylations were tested by ELISA. The IR phosphorylation activities of the tested compounds were expressed as a percentage of the vehicle. (C) 4524-E7 and 1,4-naphthoquinone derivates activate IR and its downstream signaling in CHO-IR cells. […] The cell lysates were analyzed by immunoblotting with various indicated antibodies. The phosphorylated IR was immunoprecipitated using PY20 and analyzed by immunoblotting with anti-IR13 antibody. […] The phosphorylation of each receptor was determined by Western blot using specific antibodies as indicated. (E) 4524-E7 activates IR through its ICD. Upper panel: Diagram of chimaeric receptors. Lower panel: His-tagged wild-type IR, IGFR-IR, IR-IGFR, and IR-EGFR constructs were transfected into CHO cells followed vehicle or 5 μM 4524-E7 treatment for 30 min. Then the cells were lysated and the transfected receptor fused to His tag were pulled down with Ni+ beads, followed by western blot against anti-p-Tyr and anti-His. The cell lysates were tested with anti-p-Akt and anti-Akt.
A cell-based ELISA assay was developed with an IR stably transfected Chinese Hamster Ovary (CHO-IR) cell line. The cells were seeded in a 96-well plate and treated with 10 μM (15 min) compounds. The cell lysates were subjected to the sandwich ELISA using immobilized anti-phosphotyrosine antibody and anti-IR antibody. […] Among the positive hits, 1,4-naphthoquinone compounds were identified that can selectively activate IR but not IGF-1R (FIG. 1A). […] Total IR tyrosine phosphorylation was further confirmed by immunoprecipitation using anti-phosphotyrosine (PY20) antibody (FIG. 2A, 3rd panel). […]

For the compound `O=C1c2ccccc2C(=O)C2SC(Nc3ccc(Cl)cc3)=NC12` (centres unmarked) [4524-E7, 2-((4-chlorophenyl)amino)naphtho[2,3-d]thiazole-4,9(3aH,9aH)-dione], the “[3H]-2-deoxyglucose uptake” value in assay [1] is recorded as “neither insulin nor 4524-E7 was able to induce glucose uptake”. For the same compound, the IGF-1R activation entry in assay [2] (IGF-1R-transfected HEK293 cells, 5 μM) is reported as “not any other RTKs”; in assay [2] (differentiated 3T3-L1 adipocytes), “neither IGF-1R nor EGFR was activated”. Consider `CC(=O)Oc1ccc(OC(C)=O)c2c1C(=O)C(Cl)=C(Cl)C2=O` [DDN, 5,8-diacetyloxy-2,3-dichloro-1,4-naphthoquinone], for which the IGF-1R activation entry in assay [2] (CHO-IGF-1R cells, 10 μM, 15 min) is “Neither IGF-1R nor EGFR was activated”. In the case of “insulin: insulin, used as positive control”, in assay [1], the “[3H]-2-deoxyglucose uptake” value is given as “neither insulin nor 4524-E7 was able to induce glucose uptake”.
